Results from patent publication US12600732B2, “Bifunctional compounds for degrading BTK via ubiquitin proteosome pathway” (NURIX THERAPEUTICS, INC., priority 2019, dated 2026).
Read-outs that look alike come from different tables or passages of the source.

Experiments:
BTK [1] = molecular target: T1, BTK (Mus musculus, UniProt P35991); test: In vivo degradation of BTK in mouse PD experiments with oral dosing; conditions: flow cytometry
T1 construct: from tissue; host or cells: mouse blood B cells / splenocytes (CD-1 or BALB/c)
How it was run: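 CD-1 or BALB/c mice dosed by oral gavage, screens at 90 mg/kg for 6 h, later at lower doses/longer times. Blood or splenocyte BTK measured by intracellular flow cytometry (or HTRF); % degradation from B-cell minus T-cell BTK geometric MFI, relative to vehicle.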

TMD8 C481S cells [2] = test: Cell viability assay (CellTiter-Glo), TMD8 C481S cells; conditions: for EC50: Homo sapiens, TMD8, 72 h; for EMAX (% viable cells): TMD8 C481S cells, treatment time 72 h
TMD8 cells [3] = test: Cell viability assay (CellTiter-Glo), TMD8 cells; conditions: for EC50: Homo sapiens, TMD8, 72 h; for EMAX (% viable cells): TMD8 cells, treatment time 72 h
Method: (§7) Cell viability was determined using CellTiter-Glo 2.0 Luminescent Cell Viability Assay (Promega, G9242), which quantitates the amount of ATP present as a proxy for the number of viable cells in culture. Cells were plated with densities between 2000-4000 cells per well in 96-well plates. […] CellTiter-Glo reagent was added to cells at a dilution of 1:20, and the plate was incubated ten minutes at room temperature prior to reading the luminescence signal using an EnVision plate reader. Controls included cells treated with DMSO and wells that contained no cells, only media. Background luminescence signal was determined by control wells containing no cells, only media, and was then subtracted from all sample wells. Luminescence values were then normalized to DMSO-treated wells and reported at proportion viable cells.
(§8) Here, the ability of CTMs to affect viability in BTK-dependent cell lines was assessed.

primary human T cells [4] = test: T cell activation assay, CD25 and CD69 staining (flow cytometry); assay type: cell-based; conditions: fold-change of response relative to baseline
How it was run: (§1)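 Primary human T cells stimulated via TCR with anti-CD3/anti-CD28 in the presence of test compound. IL-2 secretion measured by ELISA; surface CD25 and CD69 by flow cytometry. Values are fold-change versus anti-CD3/anti-CD28 stimulation without compound.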

BTK C481S = BTK C481S (Homo sapiens, UniProt Q06187, C481S); test: BTK degradation (Total BTK HTRF) in TMD8 cells expressing BTK-C481S; assay type: cell-based; parameters: endogenous in cells; host or cells: TMD8 BTK-C481S (clone2C3), Cas9 RNP knock-in; conditions: TMD8 BTK-C481S (clone2C3) cells, treatment time 4 h
Method: (§2) BTK levels were determined using Cisbio Total-BTK HTRF (Homologous Time-Resolved Fluorescence) kit (63ADK064PEG) according to the manufacturer's protocol. Briefly, cells were incubated in 1× supplied lysis buffer for 30 minutes. In an opaque white low volume 96-well plate (Cisbio, 66PL96005), cell lysate was combined with two different specific BTK antibodies, one conjugated with Eu^3+-Cryptate FRET donor and one conjugated with d2 FRET acceptor. Assay controls include wells containing cell lysate with only the Eu^3+-Cryptate FRET donor antibody and wells containing both HTRF antibodies and lysis buffer without cells or control lysate provided by Cisbio. HTRF ratio was calculated as (acceptor signal at 665 nm/donor signal at 620 nm)×10^4. Background HTRF levels were determined from the control well containing the donor, but no acceptor, antibody. Background HTRF levels were subtracted from all samples. Readouts were reported as HTRF levels relative to HTRF levels of DMSO-treated cells. Four-parameter non-linear regressions were performed in GraphPad Prism 7.02 to obtain DC50 values.
BTK Degradation (Total BTK HTRF) at Four Hours in TMD8 Cells Expressing BTK-C481S
This example evaluates the potency of CTM in degrading […]. The BTK binding moieties utilized in CTMs bind to the BTK active site. This example evaluates whether the active site mutation C481S affects CTM-induced degradation of BTK.

TMD8 tumor cells = test: TMD8 xenograft efficacy study (wild-type BTK); assay type: in vivo, mouse; conditions: TMD8 WT, PO, 30 mg/kg, QD, 21 days of dosing
Method: […] Tumor growth inhibition (% TGI) were calculated on the final day of measurement using the equation [1−(T−T0/C−T0)]×100, where T and C represent the mean size of tumors in the treated (T) and control (C) groups, and T0 refers to the tumor size at randomization.
(§3) This example examines the activity of various BTK CTMs in relevant disease models, including the WT and C481S TMD8 model, which models B cell malignancies with/without inhibitor-driven BTK mutations at C481.

BTK [5] = molecular target: T2, BTK (Homo sapiens, UniProt Q06187); test: BTK remaining in TMD8 WT mouse xenograft study; assay type: in vivo; parameters: from tissue; host or cells: TMD8 xenograft in CB.17 SCID mice; conditions: PO, 30 mg/kg, QD, 21 days of dosing
Excerpt: Efficacy in Mouse Xenograft Models
as §3

primary human T cells [6] = test: T cell activation assay, IL-2 secretion (ELISA); assay type: cell-based
How it was run: as §1

[7] = test system: B cell receptor (BCR) signaling; test: B cell activation assay (flow cytometry), mouse B cells; assay type: cell-based; conditions: treatment 4 h, IgM stimulation 18 h
Method: (§4) Compound was present throughout the stimulation. Cells were stained with Live/Dead dye (Fisher L34976) and then fluorophore-conjugated antibodies against CD20 (Biolegend 302330), CD3 (BD Pharmingen 557705), CD86 (Biolegend 305416) and CD69 (Biolegend 310906). Stained cells were fixed in PFA and run on an Attune N×T Acoustic Focusing Flow Cytometer (Thermo-Fisher A29004), and data was analyzed using FlowJo (v10.5.3) and GraphPad Prism (v7.00) software. Single live lymphocytes were gated for B cells (CD20+CD3−) and T cells (CD3+CD20−), and the geometric mean fluorescence intensity (MFI) of CD86 and CD69 was calculated for each population. The MFI of the unstimulated sample was used to quantify baseline activation.
(§5) This example evaluates whether CTM treatment affects B cell receptor (BCR) signaling. BTK is activated downstream of the B cell receptor and leads to upregulation of activation markers CD86 and CD69 on the surface of B cells.

[8] = PK data for BTK CTMs (in vivo plasma concentrations); conditions: for Vd: read-out: Volume of Distribution
Excerpt: The present example evaluates in vivo plasma concentrations of BTK CTMs to develop PK-PD-efficacy relationship and predict human exposure.

BTK [9] = molecular target: T2, BTK; test: Cellular BTK degradation assay (Total BTK HTRF) in TMD8 cells; assay type: cell-based; parameters: endogenous in cells; host or cells: TMD8
Method: Cellular BTK Degradation Assay
In Vitro Cellular Screening to Determine Potency as Measured by DC50 Values after Four Hour Incubation
as §2
Cellular BTK degradation was measured as above for four hours in TMD8 cells for two diastereomers of compound 130. DC50 and EC50 values are the concentration at which the response is halfway between the top and bottom of the fitted non-linear regression curve.
The present example evaluates whether potency of BTK CTMs shifts with longer timepoints. DC50 values are typically calculated with a 4-hour timepoint.

Rec-1 cells = test: Cell viability assay (CellTiter-Glo), Rec-1 cells; assay type: cell-based
Excerpt: (§6) This example evaluates effects of CTM-mediated degradation on cell viability. […] Mino and Rec-1 are models of Mantle Cell Lymphoma, which is sensitive to IMiDs.

Mino cells = test: Cell viability assay (CellTiter-Glo), Mino cells; assay type: cell-based; conditions: Mino cells, treatment time 72 h
Excerpt: as §6

[10] = test system: B cell receptor (BCR) signaling; test: B cell activation assay (flow cytometry), human B cells; assay type: cell-based; conditions: treatment 4 h, IgM stimulation 18 h
Method: as §4, §5

TMD8 C481S cells [11] = conditions: human, 72 h
TMD8 cells [12] = conditions: human, 72 h
Method: as §7, §8

[13] = Rat Sprague-Dawley, 10 mg/kg PO
[14] = oral dose 3 mg/kg, 24 h, splenocytes
[15] = oral dose 10 mg/kg, 24 h, blood
[16] = oral dose 10 mg/kg, 24 h, splenocytes
[17] = oral dose 30 mg/kg, 24 h, blood

CN1CCN([C@@H]2CCCN(c3cnc(C(N)=O)c(Nc4ccc(C5CN(C6CCN(c7ccc8c(c7)C(=O)N(C7CCC(=O)NC7=O)C8=O)CC6)C5)cc4)n3)C2)C1=O (stereo partly shown) [Compound 37]
% BTK Remaining (BTK [1]; oral dose 3 mg/kg, 6 h, blood): 26%
% BTK Remaining (BTK [1]; oral dose 3 mg/kg, 24 h, blood): 51%
EC50 (TMD8 C481S cells [2]): 51.7 nM
EMAX (% viable cells) (TMD8 C481S cells [2]): 16%
EC50 (TMD8 cells [3]): 21.1 nM
EMAX (% viable cells) (TMD8 cells [3]): 10%
CD25 Staining Anti-CD3/Anti-CD28 Stimulation (primary human T cells [4]; 1.4 nM): 1.11
CD69 Staining Anti-CD3/Anti-CD28 Stimulation (primary human T cells [4]; 1.4 nM): 1.08
CD25 Staining Anti-CD3/Anti-CD28 Stimulation (primary human T cells [4]; 37 nM): 0.79
CD69 Staining Anti-CD3/Anti-CD28 Stimulation (primary human T cells [4]; 37 nM): 0.77
CD25 Staining Anti-CD3/Anti-CD28 Stimulation (primary human T cells [4]; 333 nM): 0.43
CD69 Staining Anti-CD3/Anti-CD28 Stimulation (primary human T cells [4]; 333 nM): 0.45
DC50 (BTK C481S): 2.7 nM
Tumor Growth Inhibition (relative to vehicle) (TMD8 tumor cells): 41%
BTK Remaining (% relative to vehicle) (BTK [5]): 16%
IL-2 Secretion Anti-CD3/Anti-CD28 Stimulation (primary human T cells [6]; 1.4 nM, fold-change of response relative to baseline): 1.16
IL-2 Secretion Anti-CD3/Anti-CD28 Stimulation (primary human T cells [6]; 37 nM, fold-change of response relative to baseline): 2.06
IL-2 Secretion Anti-CD3/Anti-CD28 Stimulation (primary human T cells [6]; 333 nM, fold-change of response relative to baseline (stimulation without compound)): 1.64
EC50 ([7]; read-out: CD69 EC50): 0.1 nM
EC50 ([7]; read-out: CD86 EC50): 0.2 nM
AUC ([8]; Mouse Balb/c, 1 mg/kg IV): 1.77 µM·h
clearance ([8]; Mouse Balb/c, 1 mg/kg IV): 12 mL/min/kg
Vd ([8]; Mouse Balb/c, 1 mg/kg IV): 1.2 L/kg
AUC ([8]; Mouse Balb/c, 30 mg/kg PO): 1.79 µM·h
bioavailability ([8]; Mouse Balb/c, 30 mg/kg PO): 5%
AUC ([8]; Rat Sprague-Dawley, 1 mg/kg IV): 0.59 µM·h
clearance ([8]; Rat Sprague-Dawley, 1 mg/kg IV): 36.3 mL/min/kg
Vd ([8]; Rat Sprague-Dawley, 1 mg/kg IV): 4.6 L/kg
AUC [8, 13]: 0.027 µM·h
bioavailability [8, 13]: 1%

CN1CCN([C@@H]2CCCN(c3cnc(C(N)=O)c(Nc4ccc(C5CCN(CC6CCN(c7ccc(C(=O)N[C@H]8CCC(=O)NC8=O)nc7)CC6)CC5)cc4)n3)C2)C1=O [Compound 195]
% BTK Remaining (BTK [1]; oral dose 3 mg/kg, 24 h, blood): 40%
% BTK Remaining (BTK [1]; [14]): 39%
% BTK Remaining (BTK [1]; [15]): 25%
% BTK Remaining (BTK [1]; [16]): 23%
DC50 (BTK [9]; treatment time 4 h): 0.26 nM

CN1CCN([C@@H]2CCCN(c3cnc(C(N)=O)c(Nc4ccc(C5CCN(CC6CCN(c7ccc(C(=O)N[C@@H]8CCC(=O)NC8=O)nc7)CC6)CC5)cc4)n3)C2)C1=O [Compound 194]
% BTK Remaining (BTK [1]; oral dose 3 mg/kg, 24 h, blood): 90%
% BTK Remaining (BTK [1]; [14]): 95%
% BTK Remaining (BTK [1]; [15]): 63%
% BTK Remaining (BTK [1]; [16]): 57%
DC50 (BTK [9]; treatment time 4 h): 4.3 nM

NC(=O)c1ncc(-c2nccs2)nc1Nc1ccc(C2CCN(C[C@@H]3CCN(c4ccc5c(c4)C(=O)N(C4CCC(=O)NC4=O)C5=O)C3)CC2)cc1 (stereo partly shown) [Compound 148]
% BTK Remaining (BTK [1]; [17]): 24%
EC50 (TMD8 C481S cells [2]): 9.18 nM
EMAX (% viable cells) (TMD8 C481S cells [2]): 4%
EC50 (TMD8 cells [3]): 3.27 nM
EMAX (% viable cells) (TMD8 cells [3]): 2%
DC50 (BTK C481S): 9.7 nM
DC50 (BTK [9]; treatment time 24 h): 0.68 nM

CC#CC(=O)N1CCC[C@H]1c1nc(-c2ccc(C(=O)Nc3ccccn3)cc2)c2c(N)nccn12 [Acalabrutinib, acalabrutinib, reference compound]
EC50 (TMD8 C481S cells [2]): > 2000 nM
EMAX (% viable cells) (TMD8 C481S cells [2]): 96%
EC50 (TMD8 cells [3]): 12 nM
EMAX (% viable cells) (TMD8 cells [3]): 35%
EC50 (Rec-1 cells; Homo sapiens, Rec1, treatment time 72 h): 582 nM
EMAX (% viable cells) (Rec-1 cells; treatment time 72 h): 76%
EC50 ([7]; read-out: CD69 EC50): 1 nM
EC50 ([7]; read-out: CD86 EC50): 3 nM
EC50 (Mino cells; Homo sapiens): 1240 nM
EMAX (% viable cells) (Mino cells): 84%
EC50 ([10]; read-out: CD69 EC50): 2 nM
EC50 ([10]; read-out: CD86 EC50): 3 nM

NC(=O)c1ncc(-c2nccs2)nc1Nc1ccc(N2CCC3(CCN(Cc4ccc5c(c4)C(=O)N(C4CCC(=O)NC4=O)C5=O)CC3)CC2)cc1 (stereo not shown) [Compound 150]
% BTK Remaining (BTK [1]; [17]): 25%
DC50 (BTK [9]; treatment time 24 h): 4.7 nM

NC(=O)[C@H]1CCN(c2ncnc(N)c2F)C[C@@H]1N1CCC[C@@H](Nc2cc(Cl)cc(C(F)(F)F)c2)C1=O [Vecabrutinib]
EC50 (TMD8 C481S cells [2]): 530 nM
EC50 (TMD8 cells [3]): 256 nM
EMAX (% viable cells) (TMD8 C481S cells [11]): 51%
EMAX (% viable cells) (TMD8 cells [12]): 38%

CN1CCN([C@@H]2CCCN(c3cnc(C(N)=O)c(Nc4ccc(C5(C)CCN(CCCCc6cccc7c6CN(C6CCC(=O)NC6=O)C7=O)CC5)cc4)n3)C2)C1=O (stereo partly shown) [Compound 21]
EC50 (TMD8 cells [3]): 1.6 nM
EMAX (% viable cells) (TMD8 cells [12]): 19%
